Results taken from patent US20250179000A1 (Sanford Burnham Prebys Medical Discovery Institute, priority 2021, published 2025).

Assays:
[1] = tested on: cocaine craving; conditions: preliminary results in humans; cited from earlier work
[2] = tested on: cocaine-seeking in rats; conditions: systemic injections; cited from earlier work
[3] = molecular target: Human mGlu2 (Homo sapiens, UniProt Q14416); assay: mGlu receptor in vitro assay, human mGlu2; format: cell-based
[4] = molecular target: Human mGlu3 (Homo sapiens, UniProt Q14832); assay: mGlu receptor in vitro assay, human mGlu3; format: cell-based
[5] = molecular target: T1, Rat mGlu3 (Rattus norvegicus, UniProt P31422); assay: mGlu receptor in vitro assay (thallium flux through GIRK channels / calcium assay), rat mGlu3; format: cell-based; conditions: PAM potency with EC20 glutamate
T1 construct: expressed in transfected cells; host or cells: HEK-293 co-expressing GIRK channels
How it was run: (§1)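 HEK-293 cells co-expressing rat mGlu2 or mGlu3 and GIRK, dye-loaded with FluoZin2-AM, compound added about 2.5 min before thallium buffer with EC20 glutamate; potency from the 5-15 s fluorescence slope, 10-point 4-parameter fit. Calcium assay at mGlu3 used TREx293 mGlu3 Gα15 cells induced with tetracycline 20 ng/mL for 20 h.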

[6] = molecular target: T2, Rat mGlu2 (Rattus norvegicus, UniProt P31421); assay: mGlu receptor in vitro assay, thallium flux through GIRK channels, rat mGlu2; format: cell-based; conditions: PAM potency with EC20 glutamate
T2 construct: expressed in transfected cells; host or cells: HEK-293 co-expressing GIRK channels
How it was run: as §1

T2 sequence (P31421 19-872): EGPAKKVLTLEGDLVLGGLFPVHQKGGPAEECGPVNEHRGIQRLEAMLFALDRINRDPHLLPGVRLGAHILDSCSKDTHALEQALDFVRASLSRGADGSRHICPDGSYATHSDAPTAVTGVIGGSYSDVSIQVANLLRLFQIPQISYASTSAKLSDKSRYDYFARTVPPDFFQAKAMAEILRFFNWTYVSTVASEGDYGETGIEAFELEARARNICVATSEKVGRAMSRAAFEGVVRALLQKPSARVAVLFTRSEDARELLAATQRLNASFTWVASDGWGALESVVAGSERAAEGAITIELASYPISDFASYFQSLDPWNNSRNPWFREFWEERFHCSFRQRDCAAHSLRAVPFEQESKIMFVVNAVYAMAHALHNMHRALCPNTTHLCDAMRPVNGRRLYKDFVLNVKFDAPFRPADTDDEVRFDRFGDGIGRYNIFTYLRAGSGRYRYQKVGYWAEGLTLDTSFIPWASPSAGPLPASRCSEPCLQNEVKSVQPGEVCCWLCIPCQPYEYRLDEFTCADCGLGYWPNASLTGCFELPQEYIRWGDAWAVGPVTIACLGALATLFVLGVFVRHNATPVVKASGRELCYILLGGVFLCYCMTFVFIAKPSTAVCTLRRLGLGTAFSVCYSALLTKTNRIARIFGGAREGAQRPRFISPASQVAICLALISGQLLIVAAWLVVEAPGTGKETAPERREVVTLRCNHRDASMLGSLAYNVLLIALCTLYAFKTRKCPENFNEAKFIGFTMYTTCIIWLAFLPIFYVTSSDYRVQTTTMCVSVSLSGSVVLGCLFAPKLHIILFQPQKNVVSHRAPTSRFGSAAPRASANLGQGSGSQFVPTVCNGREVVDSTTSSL
Sequence of Human mGlu2 (Q14416 19-872): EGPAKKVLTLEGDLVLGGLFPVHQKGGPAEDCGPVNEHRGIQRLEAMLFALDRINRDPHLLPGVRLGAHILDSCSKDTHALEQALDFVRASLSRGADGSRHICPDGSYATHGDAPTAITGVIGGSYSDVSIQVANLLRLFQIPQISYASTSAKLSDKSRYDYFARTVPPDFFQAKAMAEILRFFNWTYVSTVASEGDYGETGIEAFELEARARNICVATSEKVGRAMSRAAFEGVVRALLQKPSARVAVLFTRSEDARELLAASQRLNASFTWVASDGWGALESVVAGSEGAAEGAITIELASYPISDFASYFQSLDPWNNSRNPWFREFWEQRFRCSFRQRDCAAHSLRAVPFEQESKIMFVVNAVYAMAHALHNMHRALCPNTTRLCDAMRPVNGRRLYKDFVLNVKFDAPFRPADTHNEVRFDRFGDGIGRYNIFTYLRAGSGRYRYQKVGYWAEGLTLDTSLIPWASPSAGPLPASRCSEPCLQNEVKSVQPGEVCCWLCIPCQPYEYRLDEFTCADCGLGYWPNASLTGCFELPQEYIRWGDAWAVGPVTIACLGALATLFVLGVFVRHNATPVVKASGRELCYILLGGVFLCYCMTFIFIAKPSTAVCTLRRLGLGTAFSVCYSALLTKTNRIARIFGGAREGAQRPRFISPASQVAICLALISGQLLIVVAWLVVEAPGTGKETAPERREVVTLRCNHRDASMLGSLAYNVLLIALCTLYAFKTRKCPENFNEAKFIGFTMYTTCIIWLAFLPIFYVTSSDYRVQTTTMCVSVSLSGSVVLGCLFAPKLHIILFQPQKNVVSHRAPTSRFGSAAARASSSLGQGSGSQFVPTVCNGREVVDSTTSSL
Sequence of Human mGlu3 (Q14832 23-879): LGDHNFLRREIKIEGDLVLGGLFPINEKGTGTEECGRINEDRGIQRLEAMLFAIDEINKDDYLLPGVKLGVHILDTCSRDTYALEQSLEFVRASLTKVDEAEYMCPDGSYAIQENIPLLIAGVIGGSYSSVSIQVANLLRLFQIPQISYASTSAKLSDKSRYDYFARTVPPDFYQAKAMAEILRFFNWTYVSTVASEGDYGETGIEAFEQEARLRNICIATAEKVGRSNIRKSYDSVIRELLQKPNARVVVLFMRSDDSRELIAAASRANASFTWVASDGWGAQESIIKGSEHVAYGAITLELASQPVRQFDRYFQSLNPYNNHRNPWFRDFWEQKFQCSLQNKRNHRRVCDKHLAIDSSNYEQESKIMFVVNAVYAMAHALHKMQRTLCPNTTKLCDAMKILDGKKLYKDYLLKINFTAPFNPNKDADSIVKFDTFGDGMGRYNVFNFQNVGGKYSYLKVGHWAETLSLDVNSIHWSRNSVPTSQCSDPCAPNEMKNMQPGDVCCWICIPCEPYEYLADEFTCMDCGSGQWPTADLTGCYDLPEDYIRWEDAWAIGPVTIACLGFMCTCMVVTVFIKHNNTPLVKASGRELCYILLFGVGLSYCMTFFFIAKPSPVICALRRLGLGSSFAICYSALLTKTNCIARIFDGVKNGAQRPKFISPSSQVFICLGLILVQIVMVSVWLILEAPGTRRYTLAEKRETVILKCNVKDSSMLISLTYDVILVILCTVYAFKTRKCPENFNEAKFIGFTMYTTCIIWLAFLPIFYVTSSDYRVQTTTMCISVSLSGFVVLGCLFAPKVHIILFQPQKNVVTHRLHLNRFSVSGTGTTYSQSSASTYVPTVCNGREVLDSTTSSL
T1 sequence (P31422 23-879): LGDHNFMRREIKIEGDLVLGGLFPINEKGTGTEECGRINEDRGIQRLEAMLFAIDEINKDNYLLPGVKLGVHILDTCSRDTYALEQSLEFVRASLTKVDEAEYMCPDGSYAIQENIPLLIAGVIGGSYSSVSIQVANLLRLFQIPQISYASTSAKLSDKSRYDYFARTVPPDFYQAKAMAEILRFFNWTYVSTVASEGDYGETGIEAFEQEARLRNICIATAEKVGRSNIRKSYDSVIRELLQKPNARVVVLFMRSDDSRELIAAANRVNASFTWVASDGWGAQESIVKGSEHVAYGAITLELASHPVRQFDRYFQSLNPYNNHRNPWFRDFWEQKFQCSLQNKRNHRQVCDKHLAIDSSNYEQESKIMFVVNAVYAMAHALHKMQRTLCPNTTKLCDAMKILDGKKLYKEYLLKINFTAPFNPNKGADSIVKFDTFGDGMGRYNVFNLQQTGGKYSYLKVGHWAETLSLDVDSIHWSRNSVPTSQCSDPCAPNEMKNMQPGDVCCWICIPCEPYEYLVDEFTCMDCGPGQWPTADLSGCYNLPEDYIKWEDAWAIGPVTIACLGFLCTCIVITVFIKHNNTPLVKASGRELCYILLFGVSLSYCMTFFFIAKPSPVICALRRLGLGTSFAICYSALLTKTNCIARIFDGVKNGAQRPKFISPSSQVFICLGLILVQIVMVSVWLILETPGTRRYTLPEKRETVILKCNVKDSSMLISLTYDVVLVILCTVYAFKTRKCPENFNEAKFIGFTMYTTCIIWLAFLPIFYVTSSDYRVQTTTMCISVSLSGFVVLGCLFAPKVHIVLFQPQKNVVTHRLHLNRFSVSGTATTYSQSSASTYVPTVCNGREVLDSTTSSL

Structure (SMILES)	EC50 [3]	EC50 [4]	EC50 [5]	EC50 [6]	cocaine craving [1]	reinstatement of cocaine-seeking [2]
CC(=O)N[C@@H](CS)C(=O)O [N-acetylcysteine]					attenuated cocaine craving	attenuated
Cc1c(OCCOCCOc2ccc(C(=O)CC(C)(C)C)c(O)c2C)cccc1C(=O)O [Example 23, 3-(2-{2-[4-(3,3-Dimethylbutanoyl)-3-hydroxy-2-methylphenoxy]ethoxy}ethoxy)-2-methylbenzoic acid]	0.045 µM	0.327 µM	0.491 µM	0.091 µM		
CCCC(=O)c1ccc(OCCOCCOc2ccc(C(=O)O)cc2OC)c(C)c1O [Example 5, 4-(2-(2-(4-Butyryl-3-hydroxy-2-methylphenoxy)ethoxy)ethoxy)-3-methoxybenzoic acid]	0.026 µM	> 10 µM	> 10 µM	0.027 µM		
Cc1c(OCCCCOc2ccc(C(=O)O)c(F)c2)ccc(C(=O)CC(C)C)c1O [compound 100, 2-Fluoro-4-{4-[3-hydroxy-2-methyl-4-(3-methylbutanoyl)phenoxy]butoxy}benzoic acid]	0.015 µM	0.773 µM	0.732 µM	0.079 µM		

Second part, led by results:

EC50 [3]	EC50 [4]	EC50 [5]	EC50 [6]	Structure (SMILES)	cocaine craving [1]	reinstatement of cocaine-seeking [2]
0.021 µM	> 10 µM	> 10 µM	0.043 µM	CCCC(=O)c1ccc(OCCCCCOc2ccc(C(=O)O)cc2Cl)c(C)c1O [Example 50, 4-[5-(4-Butanoyl-3-hydroxy-2-methylphenoxy)pentyloxy]-3-chlorobenzoic acid]		
0.055 µM	> 10 µM	> 10 µM	0.265 µM	CCCC(=O)c1ccc(OCCC(C)(C)CCOc2cccc(C(=O)O)c2C)c(C)c1O [Example 30, 3-[5-(4-Butanoyl-3-hydroxy-2-methylphenoxy)-3,3-dimethylpentyloxy]-2-methylbenzoic acid]		
0.014 µM	> 30 µM	> 30 µM	0.089 µM	CCCC(=O)c1ccc(OCC2(COc3cccc(C(=O)O)c3C)CC2)c(C)c1O [Example 36, 3-({[(4-Butanoyl-3-hydroxy-2-methylphenoxy)methyl]cyclopropyl}methoxy)-2-methylbenzoic acid]		
